US20250092383A1, “COMPOUNDS AND METHODS FOR FBXO22-MEDIATED PROTEIN DEGRADATION” (Northwestern University, priority 2023, published 2025)
Peptide text beside a SMILES is read from it. * marks the point of attachment. Cbz = O=C(OCc1ccccc1)*

Assays:
Assay type in all cases: cell-based
BRD4 [1] = target: T1, BRD4 (Homo sapiens, UniProt O60885); assay: BRD4 degradation in A549 wild-type and FBXO22-knockout cells (western blot); conditions: 1 and 2 μM, 24 h
T1 construct: endogenous in cells; host or cells: A549 wild type and FBXO22 knockout
Excerpt: (§1) FIGS. 5A-5E show harnessing FBXO22 for the degradation of BRD4 and EML4-ALK. […] The bar graph represents quantification of the BRD4/β-actin protein content. Data are presented as the mean values (n=2 biological independent samples). […] Data are presented as the mean values (n=2 biological independent samples). […] The bar graph represents quantification of the EML4-ALK/β-actin protein content. Data are presented as the mean values (n=2 biological independent samples).
(§2) Next, the potential of FBXO22 to facilitate the degradation of additional proteins was investigated. Bromodomain-containing protein 4 (BRD4) was chosen due to its notable physiological role and the availability of a selective ligand, JQ1. The compound, 22-JQ1 (3) was synthesized by coupling the FBXO22 binding moiety to JQ1 (FIG. 5a). […] Subsequently, a global proteomic analysis was performed in A549 wild-type and FBXO22-knockout cells treated with 22-JQ1. […] 22-TAE incorporates the FBXO22 binding moiety coupled with a defined anaplastic lymphoma kinase (ALK) ligand (FIG. 5d). FBXO22 knockout was generated in H2228, a non-small cell lung cancer cell line expressing the echinoderm microtubule-associated protein-like 4 (EML4)-ALK fusion protein.

BRD4 [2] = target: T1, BRD4; assay: Global proteomic analysis in A549 wild-type and FBXO22-knockout cells treated with 22-JQ1; conditions: 2 μM, 24 h
Excerpt: as §1, §2

FKBP12 = FKBP12 (Homo sapiens, UniProt P62942); assay: Western blot of FLAG-FKBP12 degradation in HEK293T cells expressing HA-FBXO22; design: expressed in transfected cells; host or cells: HEK293T; conditions: MG132 (1 μM), MLN4924 (1 μM), SLF (25 μM)
Method: The bar graph represents quantification of the FLAG-FKBP12/HSP90 protein content. Data are presented as the mean values±s.e.m. […] HEK293T cells expressing HA-FBXO22 were treated with 0.025-15 μM 22-SLF for 8 h. The graph represents quantification of the FLAG-FKBP12/HSP90 protein content. Data are presented as the mean values (n=2 biological independent samples). […] The bar graph represents quantification of the FLAG-FKBP12/HSP90 protein content. KO, knockout; WT, wild type. Data are presented as the mean values (n=2 biological independent samples). […] The bar graph represents quantification of the FLAG-FKBP12/HSP90 protein content. Data are presented as the mean values±s.e.m. […] The result is representative of two independent experiments with similar results. WCL, whole-cell lysate; IP, immunoprecipitate.
(§3) FIGS. 3A-3H show FBXO22 C227 and C228 are involved in 22-SLF-mediated degradation of FKBP12. […] Among 5,650 quantified IA-DTB-modified peptides, four cysteines were identified on FBXO22 (C83, C117, C228, and C365). […] Data are presented as the mean values (n=2 biological independent samples for DMSO treatment; n=3 biological independent samples for 22-SLF Treatment). […] The bag graph represents quantification of the FLAG-FKBP12/HSP90 protein content. Data are presented as mean values (n=2 biological independent samples). […] The bar graph represents quantification of the FLAG-FKBP12/HSP90 protein content. Data are presented as the mean values (n=2 biological independent samples).
FIG. 11A-11B show the acrylamide variant of 22-SLF, 22a-SLF, induced the degradation of FKBP12. […] HEK293T cells expressing HA-FBXO22 were treated with 0.5, 1, or 2 μM of 22-SLF or 22a-SLF for 8 hours. The graph represents quantification of the FLAG-FKBP12/HSP90 protein content. Data are presented as mean values (n=2 biological independent samples).
Next, Western blot analysis was used to measure the degradation of FKBP12 induced by 22-SLF. To achieve this, FLAG-tagged FKBP12 and HA-tagged FBXO22 were stably overexpressed in HEK293T cells, followed by subjecting the cells to varying concentrations of 22-SLF. […] Moreover, 22-SLF's effect on FLAG-FKBP12 degradation was concentration-dependent (FIG. 2a). […] The rescue enabled by MLN4924 indicates the involvement of a Cullin-RING ligase (CRL) in the degradation process. This is consistent with FBXO22 belonging to SKP1-CUL1-F-box protein (SCF) ubiquitin ligase complexes, a subfamily of CRL. […] To provide a more comprehensive insight into 22-SLF-induced FKBP12 degradation, a dose-dependent degradation experiment using 11 concentrations of 22-SLF ranging from […] to 15 μM was conducted. This experiment enabled determination of two parameters, the Dmax value, which reached 89%, and the half-maximal degradation concentration (DC50) value, which measured at 0.5 μM (FIG. 2B). […] Collectively, this array of data supports the canonical mechanism of ligand-induced protein degradation. In this mechanism, 22-SLF orchestrates the recruitment of FBXO22 to FKBP12, culminating in the proteasomal degradation of FKBP12.
To identify the cysteine residue(s) in FBXO22 engaged with 22-SLF, HA-FBXO22-expressing HEK293T cells were treated with either DMSO or 22-SLF (2 μM, 2 hours). Using competitive cysteine-directed activity-based protein profiling (ABPP), a chemical proteomics for the measurement of target engagement, the degree of blockade of iodoacetamide-desthiobiotin (IA-DTB)-modified cysteines on FBXO22 was quantified. From a pool of 5,650 quantified IA-DTB-modified peptides, four cysteines on FBXO22 (C83, C117, C228, and C365) (FIG. 3a) were identified, with approximately 20% of FBXO22 C228 being blocked by 22-SLF treatment (FIG. 3b), indicating the potential interaction with this cysteine by 22-SLF. Consequently, C228 was mutated to alanine and HA-FBXO22 C228A-expressing HEK293T cells were generated (FIG. 3c). […]

FKBP12 (mouse FBXO22) = target: T2, FKBP12 (mouse FBXO22) (UniProt P62942+Q78JE5); assay: FKBP12 degradation in HEK293T cells expressing mouse FBXO22; conditions: HEK293T cells expressing mouse FBXO22 wildtype
T2 construct: expressed in transfected cells; host or cells: HEK293T
Excerpt: as §3
Intriguingly, the peptide sequence containing the two consecutive cysteines (C227 and C228) is identical between human and mouse (FIG. 3f). To explore whether mouse FBXO22 can facilitate 22-SLF-induced FKBP12 degradation and if the conserved cysteines (C226 and C227 in mouse FBXO22) are pivotal, HEK293T cells expressing mouse FBXO22 wildtype, C226A, C227A, and C226AC227A, were generated.

EML4-ALK fusion protein = target: T3, EML4-ALK fusion protein (Homo sapiens, UniProt Q8NEZ5+Q9HC35+Q9UM73); assay: EML4-ALK degradation in H2228 wild-type and FBXO22-knockout cells; conditions: 1 and 2 μM, 24 h
T3 construct: endogenous in cells; host or cells: H2228 wild type and FBXO22 knockout
Excerpt: as §1, §2

Sequence of FKBP12 (P62942 whole entry): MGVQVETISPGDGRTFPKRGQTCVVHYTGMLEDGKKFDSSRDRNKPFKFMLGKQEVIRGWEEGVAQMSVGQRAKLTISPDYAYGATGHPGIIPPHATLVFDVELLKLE
T2 sequence (P62942 2-108): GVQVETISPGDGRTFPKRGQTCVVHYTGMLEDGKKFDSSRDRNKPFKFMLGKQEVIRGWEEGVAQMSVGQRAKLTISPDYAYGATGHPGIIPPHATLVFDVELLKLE
T2 sequence (Q78JE5 whole entry): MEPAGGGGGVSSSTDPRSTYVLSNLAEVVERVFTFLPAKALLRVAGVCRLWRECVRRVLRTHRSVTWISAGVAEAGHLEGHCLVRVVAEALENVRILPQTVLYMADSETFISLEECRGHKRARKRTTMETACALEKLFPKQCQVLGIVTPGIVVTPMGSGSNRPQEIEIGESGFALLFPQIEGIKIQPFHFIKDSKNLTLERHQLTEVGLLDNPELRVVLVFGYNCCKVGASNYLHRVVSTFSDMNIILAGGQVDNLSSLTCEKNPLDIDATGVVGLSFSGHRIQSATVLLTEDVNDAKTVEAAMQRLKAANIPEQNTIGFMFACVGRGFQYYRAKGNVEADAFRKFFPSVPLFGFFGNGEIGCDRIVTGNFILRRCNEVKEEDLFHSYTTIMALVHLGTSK
T2 sequence (P63208 whole entry partner): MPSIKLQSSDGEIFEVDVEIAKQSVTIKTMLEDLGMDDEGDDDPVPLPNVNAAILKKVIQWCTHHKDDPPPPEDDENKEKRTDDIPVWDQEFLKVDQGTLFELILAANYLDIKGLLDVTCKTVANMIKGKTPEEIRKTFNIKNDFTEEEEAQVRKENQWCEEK
T3 sequence (Q9HC35+Q9UM73 fused): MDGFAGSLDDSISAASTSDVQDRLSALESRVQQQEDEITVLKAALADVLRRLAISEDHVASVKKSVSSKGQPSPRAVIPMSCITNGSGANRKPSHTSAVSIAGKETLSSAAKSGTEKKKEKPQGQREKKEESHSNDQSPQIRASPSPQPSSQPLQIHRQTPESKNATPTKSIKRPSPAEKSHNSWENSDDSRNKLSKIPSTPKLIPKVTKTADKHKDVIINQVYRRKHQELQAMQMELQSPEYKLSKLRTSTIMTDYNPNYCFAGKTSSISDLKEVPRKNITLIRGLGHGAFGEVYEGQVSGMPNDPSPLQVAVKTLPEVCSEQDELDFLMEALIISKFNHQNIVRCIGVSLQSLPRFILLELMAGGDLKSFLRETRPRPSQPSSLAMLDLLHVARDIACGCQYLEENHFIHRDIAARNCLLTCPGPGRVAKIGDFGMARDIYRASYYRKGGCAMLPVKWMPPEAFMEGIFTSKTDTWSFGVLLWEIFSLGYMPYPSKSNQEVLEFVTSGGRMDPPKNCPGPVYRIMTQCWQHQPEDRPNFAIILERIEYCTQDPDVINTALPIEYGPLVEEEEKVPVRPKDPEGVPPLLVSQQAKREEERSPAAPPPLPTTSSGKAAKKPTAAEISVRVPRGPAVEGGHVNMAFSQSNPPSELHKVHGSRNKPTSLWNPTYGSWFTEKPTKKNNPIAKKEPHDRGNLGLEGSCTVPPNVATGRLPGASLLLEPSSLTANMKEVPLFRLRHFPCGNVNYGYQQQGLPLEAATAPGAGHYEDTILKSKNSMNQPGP
T3 sequence (Q8NEZ5 whole entry, the tested form may be a part): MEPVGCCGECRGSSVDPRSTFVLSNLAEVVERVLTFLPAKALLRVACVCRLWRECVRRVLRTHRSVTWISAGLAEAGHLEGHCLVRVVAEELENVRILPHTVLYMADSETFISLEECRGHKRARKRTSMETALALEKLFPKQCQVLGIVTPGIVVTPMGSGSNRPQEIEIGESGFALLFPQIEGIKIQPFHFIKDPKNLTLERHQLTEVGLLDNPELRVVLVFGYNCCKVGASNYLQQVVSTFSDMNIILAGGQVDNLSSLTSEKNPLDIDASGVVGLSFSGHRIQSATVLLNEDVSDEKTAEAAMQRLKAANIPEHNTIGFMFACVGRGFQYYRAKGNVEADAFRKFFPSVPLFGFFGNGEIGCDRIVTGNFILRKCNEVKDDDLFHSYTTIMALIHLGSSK
T3 sequence (P63208 2-163 partner limits assumed): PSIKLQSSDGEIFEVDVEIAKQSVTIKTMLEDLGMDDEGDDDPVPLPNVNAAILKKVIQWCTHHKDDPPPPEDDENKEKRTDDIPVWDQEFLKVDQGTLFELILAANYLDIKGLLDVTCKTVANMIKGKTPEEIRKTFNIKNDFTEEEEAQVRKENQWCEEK
T3 sequence (Q13616 whole entry partner, the tested form may be a part): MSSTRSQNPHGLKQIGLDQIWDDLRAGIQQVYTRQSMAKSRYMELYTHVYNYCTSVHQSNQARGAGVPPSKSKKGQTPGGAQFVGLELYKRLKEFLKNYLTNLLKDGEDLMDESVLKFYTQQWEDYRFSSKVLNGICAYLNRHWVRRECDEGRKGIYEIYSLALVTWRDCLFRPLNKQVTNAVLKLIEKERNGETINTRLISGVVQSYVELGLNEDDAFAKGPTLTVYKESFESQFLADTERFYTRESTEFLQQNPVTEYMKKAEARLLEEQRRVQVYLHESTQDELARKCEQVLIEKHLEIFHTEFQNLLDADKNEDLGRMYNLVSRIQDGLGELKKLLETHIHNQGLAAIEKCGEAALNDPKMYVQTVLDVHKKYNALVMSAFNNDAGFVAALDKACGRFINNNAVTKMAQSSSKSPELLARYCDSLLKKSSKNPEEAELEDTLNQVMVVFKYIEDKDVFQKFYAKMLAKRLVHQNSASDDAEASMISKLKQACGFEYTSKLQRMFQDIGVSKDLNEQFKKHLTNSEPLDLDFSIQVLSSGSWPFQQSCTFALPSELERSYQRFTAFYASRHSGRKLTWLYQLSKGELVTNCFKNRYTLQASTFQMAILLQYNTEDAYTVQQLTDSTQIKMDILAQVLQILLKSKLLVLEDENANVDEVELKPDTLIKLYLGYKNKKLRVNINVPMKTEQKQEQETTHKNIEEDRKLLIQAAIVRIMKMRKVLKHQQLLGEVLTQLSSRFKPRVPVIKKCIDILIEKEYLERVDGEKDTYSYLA
T3 sequence (P62877 whole entry partner, the tested form may be a part): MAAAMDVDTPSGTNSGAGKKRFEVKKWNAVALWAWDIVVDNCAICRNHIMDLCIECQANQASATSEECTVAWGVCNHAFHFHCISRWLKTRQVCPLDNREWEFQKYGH

Cc1sc2c(c1C)C(c1ccc(Cl)cc1)=N[C@@H](CC(=O)NCCCOCCOCCOCCCN(C(=O)CCl)C(C(=O)NCc1ccccc1)c1nc3ccccc3s1)c1nnc(C)n1-2 (stereo partly drawn) [22-JQ1]
BRD4 degradation, A549 FBXO22 knockout cells (BRD4 [1]): abolished upon FBXO22 knockout | BRD4 degradation, A549 wild-type cells (BRD4 [1]): promoted the degradation of BRD4 | BRD4 degradation in global proteomics (BRD4 [2]): potent degradation of BRD4 in A549 wild-type but not FBXO22-knockout cells

NS(=O)(=O)OC[C@@H]1C[C@@H](n2ccc3c(N[C@H]4CCc5ccccc54)ncnc32)C[C@@H]1O [MLN4924, reference compound]
Blockade of 22-SLF-induced loss of FLAG-FKBP12 expression (FKBP12): blocked | Blockade of 22-SLF-induced FKBP12 degradation, mouse FBXO22 (FKBP12 (mouse FBXO22)): blocked

CC(C)C[C@@H](C=O)NC(=O)[C@H](CC(C)C)NC(=O)[C@H](CC(C)C)NC(=O)OCc1ccccc1 [MG132, reference compound] (Cbz-Leu-Leu-Leu-aldehyde)
Blockade of 22-SLF-induced loss of FLAG-FKBP12 expression (FKBP12): blocked | Blockade of 22-SLF-induced FKBP12 degradation, mouse FBXO22 (FKBP12 (mouse FBXO22)): blocked

COc1cc(N2CCN(CCOCCOCCN(C(=O)CCl)C(C(=O)NCc3ccccc3)c3nc4ccccc4s3)CC2)ccc1Nc1ncc(Cl)c(Nc2ccccc2S(=O)(=O)C(C)C)n1 (stereo not drawn) [22-TAE]
EML4-ALK degradation, FBXO22-knockout H2228 cells (EML4-ALK fusion protein): no such degradation was observed | EML4-ALK degradation, H2228 wild-type cells (EML4-ALK fusion protein): induced the degradation of EML4-ALK fusion protein
